According to ChEMBL document CHEMBL1133826, “Design, synthesis, and biological activity of diiminoisoindolines as complement component 3a antagonists” (Bioorg Med Chem Lett, 2001):
Each block holds one molecule with its values, some of them ahead of it.

Assays:
Homo sapiens [1] = species: Homo sapiens; experiment: Percent inhibition against C3a receptor induced calcium mobilization in human neutrophil at the dose of 25 uM; assay type: functional
Homo sapiens [2] = species: Homo sapiens; experiment: Inhibitory concentration against C3a receptor induced chemotaxis in human eosinophils; assay type: functional, organism-based
[3] = biological target: T1, C3a anaphylatoxin chemotactic receptor (Homo sapiens, UniProt Q16581); experiment: Inhibition of complement component 3a (C3a) binding to C3a receptor in human neutrophil based assay
T1 sequence (Q16581 whole entry): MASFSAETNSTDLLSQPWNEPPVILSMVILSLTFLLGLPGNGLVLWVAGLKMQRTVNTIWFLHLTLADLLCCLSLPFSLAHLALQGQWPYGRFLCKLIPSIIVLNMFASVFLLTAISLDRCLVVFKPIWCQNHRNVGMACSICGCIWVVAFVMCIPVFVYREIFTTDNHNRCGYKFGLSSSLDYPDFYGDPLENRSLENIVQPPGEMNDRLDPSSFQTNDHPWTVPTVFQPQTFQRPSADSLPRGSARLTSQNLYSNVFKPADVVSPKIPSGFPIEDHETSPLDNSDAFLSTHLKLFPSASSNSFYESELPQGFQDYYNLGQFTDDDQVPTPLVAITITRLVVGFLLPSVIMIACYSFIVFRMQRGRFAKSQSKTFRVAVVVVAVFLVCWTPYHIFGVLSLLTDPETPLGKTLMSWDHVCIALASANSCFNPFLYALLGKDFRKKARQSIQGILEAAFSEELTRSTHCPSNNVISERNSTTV

[4] = biological target: T1, C3a anaphylatoxin chemotactic receptor; experiment: Concentration required to inhibit complement component 3a (C3a) binding to C3a receptor in human neutrophil based assay; Not active at 25 uM
Homo sapiens [5] = species: Homo sapiens; experiment: Concentration required for 50% inhibition of binding against C3a receptor induced calcium mobilization in human neutrophil; assay type: functional, organism-based
Rattus norvegicus [6] = experiment: Percent inhibition against C3a receptor induced wheal formation in rat at the dose of 30 mg/Kg administered orally
Rattus norvegicus [7] = experiment: Percent inhibition against C3a receptor induced wheal formation in rat at the dose of 30 mg/Kg administered intraperitoneally
Rattus norvegicus [8] = experiment: Percent inhibition against C3a receptor induced wheal formation in rat at the dose of 15 mg/Kg administered orally
Homo sapiens [9] = species: Homo sapiens; experiment: Inhibitory concentration against C3a receptor induced chemotaxis in human eosinophils; Not active at 25 uM; assay type: functional, organism-based
Homo sapiens [10] = species: Homo sapiens; experiment: Percent inhibition against C3a receptor induced chemotaxis in human eosinophils at the dose of 25 uM; assay type: functional

IC50 (Homo sapiens [2]): 6.1 µM
SMILES: CCCOc1ccc2c(c1)/C(=N/CCc1ccc(F)cc1)N=C2NCCc1ccc(F)cc1
inhibition at 25 µM (Homo sapiens [1]): 79% | IC50 [3]: 5.97 µM

SMILES: CC(C)NC1=N/C(=N\CCc2ccc(Cl)cc2)c2ccccc21
IC50 [3]: 8.45 µM

SMILES: N=C1N=C(NCCc2ccc(Cl)cc2)c2ccccc21
IC50 [4]: Not Active

IC50 (Homo sapiens [5]): 8.2 µM | inhibition (Rattus norvegicus [6]): 63% | IC50 (Homo sapiens [2]): 10.2 µM | inhibition (Rattus norvegicus [7]): 26%
SMILES: Clc1ccc(CC/N=C2\N=C(NCCc3ccc(Cl)cc3)c3ccccc32)cc1
IC50 [3]: 7.16 µM

SMILES: Cc1ccc(CC/N=C2\N=C(NCCc3ccc(C)cc3)c3cc(Cl)c(Cl)cc32)cc1
IC50 [3]: 48 µM

IC50 (Homo sapiens [2]): 7.8 µM
SMILES: CN(C)CCOc1ccc2c(c1)/C(=N/CCc1ccc(F)cc1)N=C2NCCc1ccc(F)cc1
IC50 [3]: 5.36 µM

IC50 (Homo sapiens [5]): 3.1 µM | inhibition (Rattus norvegicus [6]): 72% | IC50 (Homo sapiens [2]): 6.5 µM | inhibition (Rattus norvegicus [7]): 73% | inhibition (Rattus norvegicus [8]): 44%
SMILES: Fc1ccc(CC/N=C2\N=C(NCCc3ccc(F)cc3)c3ccccc32)cc1
IC50 [3]: 11.4 µM

SMILES: Fc1ccc(CC/N=C2\N=C(NCCc3ccc(F)cc3)c3cnccc32)cc1
IC50 [3]: 13.4 µM

SMILES: Fc1ccc(CC/N=C2\N=C(NCCc3ccc(F)cc3)c3nccnc32)cc1
IC50 [4]: Not Active

SMILES: Cc1ccc(C/N=C2\N=C(NCc3ccc(C)cc3)c3cc([N+](=O)[O-])ccc32)cc1
IC50 [4]: Not Active

IC50 (Homo sapiens [9]): Not Active | IC50 (Homo sapiens [5]): 5.4 µM | inhibition (Rattus norvegicus [6]): 55% | inhibition (Rattus norvegicus [7]): 72% | inhibition (Rattus norvegicus [8]): 28%
SMILES: Clc1cccc(CC/N=C2\N=C(NCCc3cccc(Cl)c3)c3ccccc32)c1
IC50 [3]: 7.48 µM

SMILES: Cc1ccc(CC/N=C2/CCC(NCCc3ccc(C)cc3)=N2)cc1
IC50 [4]: Not Active

IC50 (Homo sapiens [5]): 3.8 µM
SMILES: COc1ccc2c(c1)/C(=N/CCc1ccc(C)cc1)N=C2NCCc1ccc(C)cc1
inhibition at 25 µM (Homo sapiens [10]): 37% | IC50 [3]: 12.6 µM

SMILES: CC(=O)Nc1ccc2c(c1)/C(=N\Cc1ccc(C)cc1)N=C2NCc1ccc(C)cc1
IC50 [3]: 32 µM

IC50 (Homo sapiens [5]): 3.3 µM | inhibition (Rattus norvegicus [6]): 67% | IC50 (Homo sapiens [2]): 6.5 µM | inhibition (Rattus norvegicus [7]): 38%
SMILES: Cc1ccc(CC/N=C2\N=C(NCCc3ccc(C)cc3)c3ccccc32)cc1
IC50 [3]: 6.14 µM

SMILES: CC(C)/N=C1\N=C(NC(C)C)c2ccccc21
IC50 [4]: Not Active

SMILES: CC(C/N=C1\N=C(NCC(C)c2ccc(Cl)cc2)c2ccccc21)c1ccc(Cl)cc1 (stereo unspecified)
inhibition at 25 µM (Homo sapiens [1]): 69% | IC50 [3]: 5.9 µM

IC50 (Homo sapiens [5]): 2 µM | inhibition (Rattus norvegicus [6]): 61% | inhibition (Rattus norvegicus [7]): 64% | inhibition (Rattus norvegicus [8]): 30%
SMILES: Cc1ccc(C/N=C2\N=C(NCc3ccc(C)cc3)c3ccccc32)cc1
IC50 [3]: 1.7 µM
